Assay results taken from ChEMBL document CHEMBL4359836, “Synthesis and Biological Assessment of Pyrrolobenzoxazine Scaffold as a Potent Antioxidant” (J Med Chem, 2019).
Active and inactive are the calls of the source. The calls are words filed in the database; no cut-off is given here.

What was measured:
[1] = Antioxidant activity in pH 10 Tris-HCl buffer assessed as superoxide anion radical scavenging activity by measuring rate of epinephrine auto-oxidation by spectrophotometric analysis; assay type: functional
[2] = system: Mitochondria; assay: Antioxidant activity in goat cardiac mitochondria assessed as inhibition of CuCl2/ascorbic acid-induced lipid peroxidation at 16.5 uM after 1 hr by thiobarbituric acid based UV-Visible spectrophotometric method (reference value: 60.11%); assay type: functional, subcellular; details: Capra hircus, Heart, Mitochrondria
[3] = system: Mitochondria; assay: Antioxidant activity in goat cardiac mitochondria assessed as inhibition of CuCl2/ascorbic acid-induced lipid peroxidation at 33 uM after 1 hr by thiobarbituric acid based UV-Visible spectrophotometric method (reference value: 60.11%); assay type: functional, subcellular; details: Capra hircus, Heart, Mitochrondria
[4] = system: Mitochondria; assay: Antioxidant activity in goat cardiac mitochondria assessed as reversal of CuCl2/ascorbic acid-induced reduction in GSH level at 33 uM after 1 hr by DTNB reagent based method relative to control; assay type: functional, subcellular; details: Capra hircus, Heart, Mitochrondria
[5] = system: Mitochondria; assay: Antioxidant activity in goat cardiac mitochondria assessed as reversal of CuCl2/ascorbic acid-induced reduction in GSH level after 1 hr by DTNB reagent based method; assay type: functional, subcellular; details: Capra hircus; Heart; Mitochrondria
[6] = system: Mitochondria; assay: Antioxidant activity in goat cardiac mitochondria assessed as reversal of CuCl2/ascorbic acid-induced reduction in PDH level at 8.25 uM using sodium pyruvate as substrate after 1 hr by spectrophotometric analysis (reference value: 66.25%); assay type: functional, subcellular; set-up: scale not given: the % may be the effect or the level left; details: Capra hircus, Heart, Mitochrondria
[7] = system: Mitochondria; assay: Antioxidant activity in goat cardiac mitochondria assessed as reversal of CuCl2/ascorbic acid-induced reduction in ICDH level at 33 uM using isocitrate as substrate after 1 hr relative to control; assay type: functional, subcellular; details: Capra hircus, Heart, Mitochrondria
[8] = Effect on ICDH levels in goat cardiac mitochondria at 8.25 to 66 uM using isocitrate as substrate after 1 hr; assay type: ADME, subcellular, Capra hircus, Heart, Mitochrondria
[9] = Effect on alpha-KGDH levels in goat cardiac mitochondria at 8.25 to 66 uM using alpha-ketoglutarate as substrate after 1 hr; assay type: ADME, subcellular, Capra hircus, Heart, Mitochrondria
[10] = Effect on SDH levels in goat cardiac mitochondria at 8.25 to 66 uM using succinate as substrate after 1 hr by spectrophotometric analysis; assay type: ADME, subcellular, Capra hircus, Heart, Mitochrondria
[11] = Inhibition of PDH in goat cardiac mitochondria assessed as effect on Vmax at 66 uM using sodium pyruvate as substrate after 1 hr by Lineweaver-Burk double reciprocal plot analysis; set-up: species or system Capra hircus, Heart
[12] = species on record: Capra hircus; assay: Effect on PDH in goat cardiac mitochondria assessed as reversal of CuCl2/ascorbic acid induced reduction in Vmax at 66 uM using sodium pyruvate as substrate after 1 hr by Lineweaver-Burk double reciprocal plot analysis; details: Heart
[13] = species on record: Capra hircus; assay: Effect on PDH in goat cardiac mitochondria assessed as reversal of CuCl2/ascorbic acid induced reduction in Km at 66 uM using sodium pyruvate as substrate after 1 hr by Lineweaver-Burk double reciprocal plot analysis; details: Heart
[14] = species on record: Capra hircus; assay: Effect on succinate dehydrogenase in goat cardiac mitochondria assessed as reversal of CuCl2/ascorbic acid induced reduction in Vmax at 66 uM using succinate as substrate after 1 hr by Lineweaver-Burk double reciprocal plot analysis; details: Heart
[15] = species on record: Capra hircus; assay: Effect on succinate dehydrogenase in goat cardiac mitochondria assessed as reversal of CuCl2/ascorbic acid induced reduction in Km at 66 uM using succinate as substrate after 1 hr by Lineweaver-Burk double reciprocal plot analysis; details: Heart
[16] = Effect on intactness in goat cardiac mitochondria at 66 uM after 1 hr by Janus green-B staining based confocal microscopic method; assay type: ADME, subcellular, Capra hircus, Heart, Mitochrondria
[17] = system: Mitochondria; assay: Protective activity against CuCl2/ascorbic acid-induced apoptotic alteration in goat cardiac mitochondria assessed as reversal of CuCl2/ascorbic acid-induced reduction in cytochrome c oxidoreductase activity incubated for 1 hr and measured at 10 secs time interval for 90 secs by spectrophotometric analysis; assay type: functional, subcellular; details: Capra hircus; Heart; Mitochrondria
[18] = system: Mitochondria; assay: (§1) Protective activity against CuCl2/ascorbic acid-induced apoptotic alteration in goat cardiac mitochondria assessed as reversal of CuCl2/ascorbic acid-induced reduction in cytochrome c oxidase activity at 16.5 uM incubated for 1 hr and measured at 10 secs time interval for 90 secs by spectrophotometric analysis relative to control; assay type: functional, subcellular; details: Capra hircus, Heart, Mitochrondria
[19] = system: Mitochondria; assay: as §1, with “33” for “16.5”; assay type: functional, subcellular; details: Capra hircus, Heart, Mitochrondria
[20] = Effect on cytochrome c oxidase activity in goat cardiac mitochondria at 8.25 to 66 uM incubated for 1 hr and measured at 10 secs time interval for 90 secs by spectrophotometric analysis; assay type: ADME, subcellular, Capra hircus, Heart, Mitochrondria
[21] = system: Mitochondria; assay: Protective activity in goat cardiac mitochondria assessed as reduction in CuCl2/ascorbic acid-induced calcium accumulation at 66 uM after 60 min (reference value: 25.32%); assay type: functional, subcellular; set-up: scale not given: the % may be the effect or the level left; details: Capra hircus, Heart, Mitochrondria
[22] = Binding affinity to ascorbate assessed as decrease in heat change at 66 uM in presence of ascorbic acid by isothermal titration calorimetry

## CCOC(=O)c1c(-c2ccc(O)c(OC)c2)cn2c1c(=O)oc1ccccc12
[1]
  Activity: Dose-dependent effect
[2]
  inhibition: 19.9%
[3]
  inhibition: 28.2%
[4]
  fold change (FC): 4.66
[5]
  Activity: Dose-dependent effect
[6]
  Activity: 49.3%
[7]
  fold change (FC): 2.4
[8]
  Activity: Non-Toxic
[9]
  Activity: Non-Toxic
[10]
  Activity: Non-Toxic
[11]
  inhibition (INH): Not Active
[12]
  Activity: Active
[13]
  Activity: Active
[14]
  Activity: Active
[15]
  Activity: Active
[16]
  Activity: Non-Toxic
[17]
  Activity: Dose-dependent effect
[18]
  fold change (FC): 2.36
[19]
  fold change (FC): 3.5
[20]
  Activity: Non-Toxic
[21]
  Activity: 15%
[22]
  Activity: Active
